Measured values reported in publication PMC12624955, “Exploring diarylheptanoid derivatives to target LIMK1 as potential agents against colorectal cancer” (Journal of Enzyme Inhibition and Medicinal Chemistry, 2025).

Assays:
Type in all cases: biochemical
Conditions in all cases: read-out: Inhibition percentage at 1 μM
[1] = target: T1, DAPK1 (Homo sapiens, UniProt P53355); test: SelectScreen kinase panel, Adapta Universal kinase assay
T1 construct: purchased Thermo Fisher Scientific SelectScreen
Procedure: Kinase panel screening was carried out using the SelectScreen Kinase Assay (Thermo Fisher Scientific, Waltham, MA, USA). Three complementary assay formats were applied: the Z′-LYTE kinase assay, LanthaScreen Eu kinase binding assay, and Adapta Universal kinase assay. The kinases selected for this study and the corresponding assay formats are summarised in Supplementary Table S1. The Adapta Universal Kinase Assay (Thermo Fisher Scientific, Waltham, MA, USA) was used to assess kinase activity. This homogeneous, fluorescence-based immunoassay quantifies kinase activity by detecting ADP produced during the enzymatic reaction, according to the manufacturer’s instructions (https://www.thermofisher.com/tw/zt/home/industrial/pharma-biopharma/drug-discovery-development/target-and-lead-identification-and-validation/kinasebiology/kinase-activity-assays/adapta-universal-kinase-assay.html).

[2] = target: T2, MARK3 (Homo sapiens, UniProt P27448); test: SelectScreen kinase panel, Z′-LYTE kinase assay
T2 construct: purchased Thermo Fisher Scientific SelectScreen
Procedure: (§1) Kinase panel screening was carried out using the SelectScreen Kinase Assay (Thermo Fisher Scientific, Waltham, MA, USA). Three complementary assay formats were applied: the Z′-LYTE kinase assay, LanthaScreen Eu kinase binding assay, and Adapta Universal kinase assay. The kinases selected for this study and the corresponding assay formats are summarised in Supplementary Table S1.
(§2) The Z′-LYTE Kinase Assay (Thermo Fisher Scientific, Waltham, MA, USA) was used to evaluate selected kinases’ activity, according to the manufacturer’s instructions (https://www.thermofisher.com/tw/zt/home/industrial/pharma-biopharma/drug-discovery-development/target-and-lead-identification-and-validation/kinasebiology/kinase-activity-assays/z-lyte/z-lyte-reactivity-table.html). This endpoint assay quantifies kinase activity by detecting peptide substrate phosphorylation. Briefly, a 2× mixture of selected kinase and relevant substrate was prepared in kinase buffer (0.01% polyoxyethylene lauryl ether (BRIJ-35), 50 mM 4-(2-hydroxyethyl)-1-piperazineethanesulfonic acid (HEPES), pH 7.5, 1 mM ethylene glycol-bis(β-aminoethyl ether)-N,N,N′,N′-tetraacetic acid (EGTA), and 10 mM MgCl2). After 1 h incubation at room temperature, 5 μl of 1:128 diluted development reagent solution was added, followed by an additional 1 h incubation. Fluorescence was recorded using a multimode plate reader.

[3] = target: T3, IKBKB (IKK beta) (Homo sapiens, UniProt O14920); test: SelectScreen kinase panel, Z′-LYTE kinase assay
T3 construct: purchased Thermo Fisher Scientific SelectScreen
Procedure: as §1, §2

[4] = target: T4, MINK1 (Homo sapiens, UniProt Q8N4C8); test: SelectScreen kinase panel, Z′-LYTE kinase assay
T4 construct: purchased Thermo Fisher Scientific SelectScreen
Procedure: as §1, §2

[5] = target: T5, PIM1 (Homo sapiens, UniProt P11309); test: SelectScreen kinase panel, Z′-LYTE kinase assay
T5 construct: purchased Thermo Fisher Scientific SelectScreen
Procedure: as §1, §2

[6] = target: T6, SRC (Homo sapiens, UniProt P12931); test: SelectScreen kinase panel, Z′-LYTE kinase assay
T6 construct: purchased Thermo Fisher Scientific SelectScreen
Procedure: as §1, §2

[7] = target: T7, CSNK1D (CK1 delta) (Homo sapiens, UniProt P48730); test: SelectScreen kinase panel, Z′-LYTE kinase assay
T7 construct: purchased Thermo Fisher Scientific SelectScreen
Procedure: as §1, §2

[8] = target: T8, IRAK4 (Homo sapiens, UniProt Q9NWZ3); test: SelectScreen kinase panel, Z′-LYTE kinase assay
T8 construct: purchased Thermo Fisher Scientific SelectScreen
Procedure: as §1, §2

[9] = target: T9, AURKA (Aurora A) (Homo sapiens, UniProt O14965); test: SelectScreen kinase panel, Z′-LYTE kinase assay
T9 construct: purchased Thermo Fisher Scientific SelectScreen
Procedure: as §1, §2

[10] = target: T10, RPS6KA3 (RSK2) (Homo sapiens, UniProt P51812); test: SelectScreen kinase panel, Z′-LYTE kinase assay
T10 construct: purchased Thermo Fisher Scientific SelectScreen
Procedure: as §1, §2

[11] = target: T11, CDK2/cyclin A (Homo sapiens, UniProt P24941); test: SelectScreen kinase panel, Z′-LYTE kinase assay
T11 construct: purchased Thermo Fisher Scientific SelectScreen
Procedure: as §1, §2

[12] = target: T12, ERBB4 (HER4) (Homo sapiens, UniProt Q15303); test: SelectScreen kinase panel, Z′-LYTE kinase assay
T12 construct: purchased Thermo Fisher Scientific SelectScreen
Procedure: as §1, §2

[13] = target: T13, DYRK1B (Homo sapiens, UniProt Q9Y463); test: SelectScreen kinase panel, Z′-LYTE kinase assay
T13 construct: purchased Thermo Fisher Scientific SelectScreen
Procedure: as §1, §2

[14] = target: T14, PLK2 (Homo sapiens, UniProt Q9NYY3); test: SelectScreen kinase panel, Z′-LYTE kinase assay
T14 construct: purchased Thermo Fisher Scientific SelectScreen
Procedure: as §1, §2

[15] = target: T15, MAPK3 (ERK1) (Homo sapiens, UniProt P27361); test: SelectScreen kinase panel, Z′-LYTE kinase assay
T15 construct: purchased Thermo Fisher Scientific SelectScreen
Procedure: as §1, §2

[16] = target: T16, PRKACA (PKA) (Homo sapiens, UniProt P17612); test: SelectScreen kinase panel, Z′-LYTE kinase assay
T16 construct: purchased Thermo Fisher Scientific SelectScreen
Procedure: as §1, §2

[17] = target: T17, NEK1 (Homo sapiens, UniProt Q96PY6); test: SelectScreen kinase panel, Z′-LYTE kinase assay
T17 construct: purchased Thermo Fisher Scientific SelectScreen
Procedure: as §1, §2

[18] = target: T18, PAK2 (PAK65) (Homo sapiens, UniProt Q13177); test: SelectScreen kinase panel, Z′-LYTE kinase assay
T18 construct: purchased Thermo Fisher Scientific SelectScreen
Procedure: as §1, §2

[19] = target: T19, DCAMKL1 (DCLK1) (Homo sapiens, UniProt O15075); test: SelectScreen kinase panel, Z′-LYTE kinase assay
T19 construct: purchased Thermo Fisher Scientific SelectScreen
Procedure: as §1, §2

[20] = target: T20, MAP3K9 (MLK1) (Homo sapiens, UniProt P80192); test: SelectScreen kinase panel, Z′-LYTE kinase assay
T20 construct: purchased Thermo Fisher Scientific SelectScreen
Procedure: as §1, §2

[21] = target: T21, BTK (Homo sapiens, UniProt Q06187); test: SelectScreen kinase panel, Z′-LYTE kinase assay
T21 construct: purchased Thermo Fisher Scientific SelectScreen
Procedure: as §1, §2

[22] = target: T22, FGFR1 (Homo sapiens, UniProt P11362); test: SelectScreen kinase panel, Z′-LYTE kinase assay
T22 construct: purchased Thermo Fisher Scientific SelectScreen
Procedure: as §1, §2

[23] = target: T23, PRKCA (PKC alpha) (Homo sapiens, UniProt P17252); test: SelectScreen kinase panel, Z′-LYTE kinase assay
T23 construct: purchased Thermo Fisher Scientific SelectScreen
Procedure: as §1, §2

[24] = target: T24, NTRK1 (TRKA) (Homo sapiens, UniProt P04629); test: SelectScreen kinase panel, Z′-LYTE kinase assay
T24 construct: purchased Thermo Fisher Scientific SelectScreen
Procedure: as §1, §2

[25] = target: T25, AKT1 (PKB alpha) (Homo sapiens, UniProt P31749); test: SelectScreen kinase panel, Z′-LYTE kinase assay
T25 construct: purchased Thermo Fisher Scientific SelectScreen
Procedure: as §1, §2

[26] = target: T26, MKNK1 (MNK1) (Homo sapiens, UniProt Q9BUB5); test: SelectScreen kinase panel, Z′-LYTE kinase assay
T26 construct: purchased Thermo Fisher Scientific SelectScreen
Procedure: as §1, §2

[27] = target: T27, LCK (Homo sapiens, UniProt P06239); test: SelectScreen kinase panel, Z′-LYTE kinase assay
T27 construct: purchased Thermo Fisher Scientific SelectScreen
Procedure: as §1, §2

[28] = target: T28, ROCK1 (Homo sapiens, UniProt Q13464); test: SelectScreen kinase panel, Z′-LYTE kinase assay
T28 construct: purchased Thermo Fisher Scientific SelectScreen
Procedure: as §1, §2

[29] = target: T29, STK3 (MST2) (Homo sapiens, UniProt Q13188); test: SelectScreen kinase panel, Z′-LYTE kinase assay
T29 construct: purchased Thermo Fisher Scientific SelectScreen
Procedure: as §1, §2

[30] = target: T30, CAMK2B (CaMKII beta) (Homo sapiens, UniProt Q13554); test: SelectScreen kinase panel, Z′-LYTE kinase assay
T30 construct: purchased Thermo Fisher Scientific SelectScreen
Procedure: as §1, §2

[31] = target: T31, CSNK1G1 (CK1 gamma 1) (Homo sapiens, UniProt Q9HCP0); test: SelectScreen kinase panel, Z′-LYTE kinase assay
T31 construct: purchased Thermo Fisher Scientific SelectScreen
Procedure: as §1, §2

T14 sequence (Q9NYY3 whole entry): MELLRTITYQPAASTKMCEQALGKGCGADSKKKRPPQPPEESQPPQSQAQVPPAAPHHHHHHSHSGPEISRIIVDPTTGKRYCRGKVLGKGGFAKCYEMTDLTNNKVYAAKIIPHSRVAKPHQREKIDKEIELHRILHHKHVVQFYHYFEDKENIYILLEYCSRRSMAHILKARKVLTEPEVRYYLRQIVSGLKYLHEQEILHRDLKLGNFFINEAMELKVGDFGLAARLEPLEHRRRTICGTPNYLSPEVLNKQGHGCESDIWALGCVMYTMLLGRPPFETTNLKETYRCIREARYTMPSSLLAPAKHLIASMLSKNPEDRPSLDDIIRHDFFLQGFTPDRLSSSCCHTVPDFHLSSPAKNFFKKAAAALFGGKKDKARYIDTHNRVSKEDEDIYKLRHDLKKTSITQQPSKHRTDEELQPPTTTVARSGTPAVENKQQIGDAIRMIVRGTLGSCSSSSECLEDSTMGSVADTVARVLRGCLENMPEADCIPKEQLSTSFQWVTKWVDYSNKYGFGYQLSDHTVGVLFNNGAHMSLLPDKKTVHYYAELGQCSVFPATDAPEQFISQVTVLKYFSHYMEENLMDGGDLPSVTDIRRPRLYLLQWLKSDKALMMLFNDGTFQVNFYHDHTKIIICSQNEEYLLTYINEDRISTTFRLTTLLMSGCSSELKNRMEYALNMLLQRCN
T31 sequence (Q9HCP0 whole entry): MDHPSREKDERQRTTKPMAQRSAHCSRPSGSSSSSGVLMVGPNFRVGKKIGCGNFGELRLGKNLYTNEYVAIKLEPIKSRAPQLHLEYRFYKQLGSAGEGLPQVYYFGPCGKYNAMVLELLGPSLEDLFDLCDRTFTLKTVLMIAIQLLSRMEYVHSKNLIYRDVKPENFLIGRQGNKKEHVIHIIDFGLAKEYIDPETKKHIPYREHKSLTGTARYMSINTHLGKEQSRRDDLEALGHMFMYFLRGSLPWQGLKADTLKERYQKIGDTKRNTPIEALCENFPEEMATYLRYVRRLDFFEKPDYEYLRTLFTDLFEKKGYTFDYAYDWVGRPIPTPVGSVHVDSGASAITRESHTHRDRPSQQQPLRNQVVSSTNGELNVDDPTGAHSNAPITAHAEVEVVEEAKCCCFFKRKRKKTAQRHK
T25 sequence (P31749 whole entry): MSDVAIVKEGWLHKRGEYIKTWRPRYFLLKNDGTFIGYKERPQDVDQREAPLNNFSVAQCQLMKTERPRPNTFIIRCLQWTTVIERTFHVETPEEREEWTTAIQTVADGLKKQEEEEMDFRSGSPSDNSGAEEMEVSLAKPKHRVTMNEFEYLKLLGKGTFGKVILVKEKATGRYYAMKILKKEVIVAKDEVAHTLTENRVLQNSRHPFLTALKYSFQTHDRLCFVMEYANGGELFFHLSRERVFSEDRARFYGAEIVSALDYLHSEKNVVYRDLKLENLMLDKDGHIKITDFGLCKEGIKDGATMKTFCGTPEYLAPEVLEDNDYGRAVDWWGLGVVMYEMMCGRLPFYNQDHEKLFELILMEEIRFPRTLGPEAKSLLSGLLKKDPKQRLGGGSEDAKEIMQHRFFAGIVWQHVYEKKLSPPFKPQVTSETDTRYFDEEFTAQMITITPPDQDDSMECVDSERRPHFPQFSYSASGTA
T8 sequence (Q9NWZ3 whole entry): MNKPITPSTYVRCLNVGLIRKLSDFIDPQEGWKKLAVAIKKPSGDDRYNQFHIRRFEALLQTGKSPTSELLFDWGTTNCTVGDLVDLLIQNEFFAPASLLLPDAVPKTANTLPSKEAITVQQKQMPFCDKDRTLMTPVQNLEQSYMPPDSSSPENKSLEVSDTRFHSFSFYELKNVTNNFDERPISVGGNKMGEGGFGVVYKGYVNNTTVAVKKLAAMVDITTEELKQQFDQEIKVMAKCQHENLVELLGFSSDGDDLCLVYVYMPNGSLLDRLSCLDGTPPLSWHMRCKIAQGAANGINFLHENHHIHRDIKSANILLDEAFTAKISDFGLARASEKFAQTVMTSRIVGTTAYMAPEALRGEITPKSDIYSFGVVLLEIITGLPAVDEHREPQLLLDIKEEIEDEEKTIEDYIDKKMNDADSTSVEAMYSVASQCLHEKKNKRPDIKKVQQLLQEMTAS
T18 sequence (Q13177 whole entry): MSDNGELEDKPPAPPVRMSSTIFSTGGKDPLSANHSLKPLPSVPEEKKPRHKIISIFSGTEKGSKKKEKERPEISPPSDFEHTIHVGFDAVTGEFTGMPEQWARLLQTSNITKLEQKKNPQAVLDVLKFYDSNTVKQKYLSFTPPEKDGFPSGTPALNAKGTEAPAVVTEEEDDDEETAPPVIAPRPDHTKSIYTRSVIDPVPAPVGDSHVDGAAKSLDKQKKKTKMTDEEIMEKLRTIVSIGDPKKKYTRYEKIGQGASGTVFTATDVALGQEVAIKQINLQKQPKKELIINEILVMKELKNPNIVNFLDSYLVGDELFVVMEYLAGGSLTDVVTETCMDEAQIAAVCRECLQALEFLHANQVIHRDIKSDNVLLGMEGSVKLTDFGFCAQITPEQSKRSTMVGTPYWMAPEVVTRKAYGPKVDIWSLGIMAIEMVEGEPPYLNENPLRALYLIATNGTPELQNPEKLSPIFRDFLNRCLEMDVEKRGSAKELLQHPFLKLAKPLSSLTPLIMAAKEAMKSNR
T13 sequence (Q9Y463 whole entry): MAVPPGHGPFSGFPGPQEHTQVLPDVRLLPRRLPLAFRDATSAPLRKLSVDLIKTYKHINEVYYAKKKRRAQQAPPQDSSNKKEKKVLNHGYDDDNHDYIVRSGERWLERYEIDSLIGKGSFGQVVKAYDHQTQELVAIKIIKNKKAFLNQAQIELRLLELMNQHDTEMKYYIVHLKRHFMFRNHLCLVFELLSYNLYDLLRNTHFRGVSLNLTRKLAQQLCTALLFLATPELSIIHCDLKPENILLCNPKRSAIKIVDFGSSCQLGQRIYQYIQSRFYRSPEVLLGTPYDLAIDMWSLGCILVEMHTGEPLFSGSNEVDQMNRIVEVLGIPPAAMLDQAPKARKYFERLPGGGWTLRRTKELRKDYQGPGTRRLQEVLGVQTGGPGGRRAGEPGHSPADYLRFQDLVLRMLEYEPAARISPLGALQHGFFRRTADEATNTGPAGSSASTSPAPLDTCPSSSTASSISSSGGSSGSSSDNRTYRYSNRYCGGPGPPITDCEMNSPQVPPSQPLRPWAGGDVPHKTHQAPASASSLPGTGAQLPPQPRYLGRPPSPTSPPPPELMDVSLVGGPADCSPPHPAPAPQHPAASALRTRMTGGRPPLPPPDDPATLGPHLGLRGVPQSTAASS
T6 sequence (P12931 whole entry): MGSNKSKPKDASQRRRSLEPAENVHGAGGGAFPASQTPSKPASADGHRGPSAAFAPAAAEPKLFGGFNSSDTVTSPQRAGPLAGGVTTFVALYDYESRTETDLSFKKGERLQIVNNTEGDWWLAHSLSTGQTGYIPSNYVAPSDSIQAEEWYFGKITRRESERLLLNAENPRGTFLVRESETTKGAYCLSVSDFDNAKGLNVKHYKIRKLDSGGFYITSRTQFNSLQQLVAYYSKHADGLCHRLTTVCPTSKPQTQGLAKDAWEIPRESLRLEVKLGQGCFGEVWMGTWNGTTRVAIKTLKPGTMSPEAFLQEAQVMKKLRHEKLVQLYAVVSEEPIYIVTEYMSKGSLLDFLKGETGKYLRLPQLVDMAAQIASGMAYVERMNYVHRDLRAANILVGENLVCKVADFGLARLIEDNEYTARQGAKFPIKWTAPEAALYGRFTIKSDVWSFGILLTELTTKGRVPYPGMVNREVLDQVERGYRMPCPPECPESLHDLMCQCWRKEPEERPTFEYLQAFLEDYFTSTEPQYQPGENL
T20 sequence (P80192 whole entry): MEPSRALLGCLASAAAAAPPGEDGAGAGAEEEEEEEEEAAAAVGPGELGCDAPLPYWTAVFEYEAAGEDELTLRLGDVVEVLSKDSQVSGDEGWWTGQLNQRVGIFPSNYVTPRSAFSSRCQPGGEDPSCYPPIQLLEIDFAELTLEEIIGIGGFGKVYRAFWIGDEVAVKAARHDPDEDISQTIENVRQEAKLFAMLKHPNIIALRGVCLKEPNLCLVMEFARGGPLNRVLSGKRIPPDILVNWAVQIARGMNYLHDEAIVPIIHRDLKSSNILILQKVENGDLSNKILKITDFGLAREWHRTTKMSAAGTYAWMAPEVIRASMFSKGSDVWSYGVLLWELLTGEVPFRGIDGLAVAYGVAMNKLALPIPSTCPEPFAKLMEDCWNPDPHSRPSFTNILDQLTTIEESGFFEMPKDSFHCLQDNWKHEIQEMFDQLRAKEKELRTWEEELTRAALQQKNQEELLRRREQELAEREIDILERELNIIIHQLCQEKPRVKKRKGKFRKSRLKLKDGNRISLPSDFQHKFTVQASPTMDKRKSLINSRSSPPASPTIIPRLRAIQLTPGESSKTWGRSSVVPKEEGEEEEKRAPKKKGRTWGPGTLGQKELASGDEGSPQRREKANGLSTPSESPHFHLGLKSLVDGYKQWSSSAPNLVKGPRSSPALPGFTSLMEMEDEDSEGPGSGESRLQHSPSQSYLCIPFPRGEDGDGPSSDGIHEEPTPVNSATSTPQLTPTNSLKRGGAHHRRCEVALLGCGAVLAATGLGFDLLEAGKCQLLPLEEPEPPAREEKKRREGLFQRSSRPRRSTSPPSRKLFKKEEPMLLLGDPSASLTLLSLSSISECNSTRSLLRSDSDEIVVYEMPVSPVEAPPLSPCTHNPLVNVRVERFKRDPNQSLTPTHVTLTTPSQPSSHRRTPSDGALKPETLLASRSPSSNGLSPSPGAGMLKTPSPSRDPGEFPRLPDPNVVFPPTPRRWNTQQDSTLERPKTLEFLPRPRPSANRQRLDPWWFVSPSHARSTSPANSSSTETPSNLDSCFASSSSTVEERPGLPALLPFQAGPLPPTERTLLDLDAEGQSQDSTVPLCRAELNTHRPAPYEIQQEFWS

**Q.** With `O=C(/C=C/c1ccc(O)c(O)c1)CCCCn1ccc2c(O)cccc21` [Compound 13a, (E)-1-(3,4-dihydroxyphenyl)-7-(4-hydroxy-1H-indol-1-yl)hept-1-en-3-one] as the molecule, how does the inhibition at 1 µM [1] read?
**A.** Its inhibition at 1 µM is -15%.

**Q.** And the inhibition at 1 µM [2]?
**A.** The inhibition at 1 µM was 6%.

**Q.** And the inhibition at 1 µM [3]?
**A.** Its inhibition at 1 µM is 8%.

**Q.** What about the inhibition at 1 µM [4] of the same molecule?
**A.** The inhibition at 1 µM was 13%.

**Q.** What about the inhibition at 1 µM [5] of the same molecule?
**A.** The inhibition at 1 µM was 12%.

**Q.** What about the inhibition at 1 µM [6] of the same molecule?
**A.** The inhibition at 1 µM was 0%.

**Q.** And the inhibition at 1 µM [7]?
**A.** Its inhibition at 1 µM is 7%.

**Q.** What about the inhibition at 1 µM [8] of the same molecule?
**A.** The inhibition at 1 µM was 4%.

**Q.** And the inhibition at 1 µM [9]?
**A.** Its inhibition at 1 µM is 18%.

**Q.** What about the inhibition at 1 µM [10] of the same molecule?
**A.** The inhibition at 1 µM was 8%.

**Q.** And the inhibition at 1 µM [11]?
**A.** Its inhibition at 1 µM is 0%.

**Q.** What about the inhibition at 1 µM [12] of the same molecule?
**A.** The inhibition at 1 µM was 15%.

**Q.** And the inhibition at 1 µM [13]?
**A.** Its inhibition at 1 µM is 4%.

**Q.** And the inhibition at 1 µM [14]?
**A.** The inhibition at 1 µM was 16%.

**Q.** What about the inhibition at 1 µM [15] of the same molecule?
**A.** Its inhibition at 1 µM is 6%.

**Q.** What about the inhibition at 1 µM [16] of the same molecule?
**A.** The inhibition at 1 µM was 5%.

**Q.** And the inhibition at 1 µM [17]?
**A.** Its inhibition at 1 µM is -1%.

**Q.** What about the inhibition at 1 µM [18] of the same molecule?
**A.** The inhibition at 1 µM was 4%.

**Q.** What about the inhibition at 1 µM [19] of the same molecule?
**A.** The inhibition at 1 µM was 1%.

**Q.** What about the inhibition at 1 µM [20] of the same molecule?
**A.** Its inhibition at 1 µM is 2%.

**Q.** What about the inhibition at 1 µM [21] of the same molecule?
**A.** Its inhibition at 1 µM is 19%.

**Q.** What about the inhibition at 1 µM [22] of the same molecule?
**A.** Its inhibition at 1 µM is 3%.

**Q.** And the inhibition at 1 µM [23]?
**A.** The inhibition at 1 µM was 13%.

**Q.** What about the inhibition at 1 µM [24] of the same molecule?
**A.** The inhibition at 1 µM was -7%.

**Q.** And the inhibition at 1 µM [25]?
**A.** Its inhibition at 1 µM is 2%.

**Q.** What about the inhibition at 1 µM [26] of the same molecule?
**A.** The inhibition at 1 µM was 8%.

**Q.** And the inhibition at 1 µM [27]?
**A.** The inhibition at 1 µM was -6%.

**Q.** What about the inhibition at 1 µM [28] of the same molecule?
**A.** Its inhibition at 1 µM is 10%.

**Q.** What about the inhibition at 1 µM [29] of the same molecule?
**A.** The inhibition at 1 µM was 0%.

**Q.** And the inhibition at 1 µM [30]?
**A.** The inhibition at 1 µM was 19%.

**Q.** What about the inhibition at 1 µM [31] of the same molecule?
**A.** Its inhibition at 1 µM is 4%.
